Entries after “also recorded” stand apart in the source; their conditions may differ.
How the values were obtained:
[1] = system: human Burkitt's lymphoma (Raji) cells; experiment: Survival of SCID mice bearing human Burkitt's lymphoma (Raji); assay type: in vivo
Method: In vivo studies were conducted to assess the therapeutic potential of SEQ ID NO:1 in the treatment of lymphoma. Viable human Burkitt's lymphoma (Raji) cells (5×10^6) collected from subconfluent logarithmically growing cultures were injected i.v. via the tail vein of each animal and disease was allowed to establish for 2 days. SEQ ID NO:1 in normal saline was administered by tail vein injections every second day at a dose of 10 mg/kg. Control animals received saline alone, without oligonucleotide. Treatment with SEQ ID NO:1 was stopped at day 42. The mice in both groups (n−10) were sacrificed at, day 73. Antitumor effects of SEQ ID NO:1 treatment were assessed by the examination of survival of mice (FIG. 18A). All mice died as a consequence of tumor progression within 23 days when left untreated. All SEQ ID NO:1 treated animals, on the other hand, survived beyond day 73 except one mouse which died at day 35. In an independent experiment, mice survived 140 days, even when treatment was stopped at day 70 (FIG. 18B). This experiment also included treatment with a control oligonucleotide, SEQ ID NO:1-SCR (scrambled version of SEQ ID NO:1). The saline and control ODN mice all died from disease progression by day 27. At day 40, the SEQ ID NO:1-treated mice continued treatment every three days until stopping the treatment at day 59. All mice survived to the end of the experimental period.

R1 mRNA = experiment: Northern blot of R1 mRNA in MDA-MB-231 cells; assay type: cell-based, human; details: 0.2 μM, four hours with Lipofectin, 16 hours recovery
Method: Total RNA was isolated using TRIzol reagent (GIBCO BRL) after cells were treated with 0.2 μM SEQ ID NO:1 for four hours in the presence of cationic lipid (Lipofectin reagent, GIBCO BRL), washed with PBS, and incubated for 16 hours to recover in normal medium containing 10% FBS. Northern blot analysis was performed as previously described (Hurta and Wright, 1995). RNA was subjected to electrophoresis through 1% formaldehyde agarose gels followed by transfer to nylon membranes. Blots were hybridized in the presence of a R1 fragment (McClarty et al, 1987). Glyceraldehyde-3-phosphate dehydrogenase (GAPDH) mRNA levels were simultaneously probed for RNA loading controls.

[2] = rat
Method: Ten rats/sex/group were administered SEQ ID NO:1 at doses of 0 (control), 2, 10, or 50 mg/kg/day. Animals in the control group received the vehicle article, PBS. […] An additional 5 rats/group were included in the control and high dose group as recovery animals, and were allowed a 14-day observation period following the treatment period. Parameters assessed during the study include mortality, clinical signs, body weights, food consumption, opthalmoscopic examination, clinical pathology assessment (hematology, coagulation, clinical chemistry, and urinalysis). Terminal procedures included a complete necropsy of each animal, and histopathologic evaluation of selected tissues for animals in the control and high dose groups. For toxicokinetic evaluations, an additional 8 rats/sex were included in the high dose groups. Serial and terminal blood samples were withdrawn from satellite animals at selected time points during infusion and after the end of infusion.

[3] = system: SIHA human cervical cancer cells; experiment: SIHA cervical tumor growth in SCID mice; assay type: in vivo
Method: SIHA human cervical cancer cells (1×10^7 cells in 100 μl of PBS) were subcutaneously injected into the right flank of 6-7 week old female SCID mice. After the size of tumor reached an approximate volume of 100 mm^3, 7 days post tumor cell injection, SEQ ID NO:1 was administered by bolus infusion into the tail vein every other day at 10 mg/kg. Control animals received saline alone for the same period. Treatments lasted for 16 days thereafter. Antitumor activities were estimated by the inhibition of tumor volume (FIG. 11A), which was measured with a caliper on five different occasions over 16-day period. Each point represents mean tumor volume calculated from 10 animals per experimental group.

[4] = Repeat dose 14-day toxicity study in monkeys (Part 1); details: monkey
[5] = cynomolgus monkey, in vivo
[6] = Acute intravenous toxicity study in the monkey (24-hour infusion, escalating doses); assay type: in vivo, Cynomolgus monkeys
Method: The objective of this single, dose escalating study was to establish a maximum tolerated dose (MTD) for SEQ ID NO:1 and to assess the effect of administered SEQ ID NO:1 on the cardiac function of conscious Cynomolgus monkeys. […] There was a 3-day washout between doses. One female animal, administered vehicle only (PBS) in the same manner, was used as a control. Electrocardiogram (ECG) measurements were conducted on each animal (including control) prior to, during and after the end of each infusion interval. Clinical signs, mortality, body weight and food consumption measurements, hematology, coagulation and clinical chemistry parameter evaluations, were recorded and evaluated. In addition, blood samples were removed prior to and at the end of each infusion interval to measure complement (CH50 and Bb). Blood samples were also drawn at the end of each infusion for analysis of parent, SEQ ID NO:1.

R1 protein = experiment: Immunoprecipitation of newly synthesized R1 protein in AsPC-1 cells; assay type: cell-based, human; details: 0.2 μM, 4 hours
Method: Immunoprecipitation was performed using a saturating amount of AD203 anti-R1 monoclonal antibody as previously described (Choy et al., 1988). Human tumor cells, AsPC-1 (pancreatic adenocarcinoma), were exposed for 4 hours to SEQ ID NO:1, SEQ ID NO:1 M is (a SEQ ID NO:1 sequence containing four base mismatch) or SEQ ID NO:1 Scr (a sequence with the same ratio of ACTG as the SEQ ID NO:1 sequence but scrambled). Cells were then washed and labeled with ^35S-methionine for 4-7 hours. R1 protein was specifically immunoprecipitated with R1 antibody from cell lysate, resolved on sodium dodecyl sulfate-polyacrylamide gels and analyzed by autoradiography.

## 5′-CTCTAGCGTCTTAAAGCCGA-3′ (CTCTAGCGTCTTAAAGCCGA; chemistry not given here) [SEQ ID NO:1]
[1]; FIG. 18A, 10 mg/kg i.v. every second day, stopped at day 42, one mouse died at day 35, untreated died within 23 days
  survival of mice: > 73 days
[1]; independent experiment FIG. 18B, saline mice died by day 27
  survival of mice: ≥ 140 days
R1 mRNA
  R1 mRNA level: specifically decreases R1 mRNA; also recorded: significant decrease; also recorded: decreased R1 mRNA levels
[2]
  sex difference in plasma concentrations during infusion: no apparent differences in the levels between males and females
[2]; in vivo
  mean Cmax: 40.4 µg/mL
  median time at which Cmax occurred: 96 h
[2]; 50 (40) mg/kg/day continuous infusion
  time to steady state of continuous infusion: approximately 24 h
[2]; after 14-day continuous infusion, high dose
  elimination t1/2: 8.6 h
[2]; continuous i.v. infusion 50 mg/kg/day (reduced to 40 mg/kg/day), 14 days
  steady state level (Css) in plasma: 34.8 µg/mL
[3]; 10 mg/kg i.v. every other day, 16 days, vs saline
  inhibition of tumor volume: strong inhibitory effects
[3]; end of treatments
  weight of excised tumors: strong antitumor effect
[4]; 14-day infusion up to 40 mg/kg/day
  deaths, clinical signs, appetite, ophthalmology, cardiology, hematology, organ weights: no deaths, no treatment-related clinical signs, effects on appetite, ophthalmology effects, cardiology, hematology effects, or changes in organ weights
[4]; continuously for 14 days at 10 mg/kg/day (123 mg/m^2/day)
  toxicity: Minimal and reversible toxicity
[5]
  APTT values compared to control: significantly longer
  WBC counts: marked increase
  appetite: significant decrease in appetite noted in the majority of high dose males
  clinical signs: Treatment-related reversible clinical signs were limited to a few high dose animals
  lymphoid atrophy: minimal to moderate lymphoid atrophy
  ophthalmoscopy: Bilateral retinopathy was noted in one high dose male
  organ weights: slight increase in relative and absolute kidney weights
  red blood cell, hematocrit, and hemoglobin values: slight to moderate reductions
[5]; 50 mg/kg/day
  summary of effects: reversible signs of weakness, decreases in body weight and appetite, prolongation of APTT, anemia, thrombocytopenia, and monocytosis
[6]; 80 mg/kg, one animal (female)
  complement values: outside the normal range (higher Bb and lower CH50)
[6]; 10-80 mg/kg
  ECG recordings and blood pressure: no treatment-related effects
[6]; 24-hour infusions of 10, 20, 40 and 80 mg/kg
  deaths, clinical signs, body weight, food consumption: no deaths, clinical signs, body weight changes, or effects on food consumption
[6]; escalating doses 10-80 mg/kg
  plasma concentrations at the end of infusion: increased with escalating dose levels
[6]; following the last dose (Day 14), all values within normal ranges
  activated partial thromboplastin times: apparent increasing trend
[6]; up to 40 mg/kg
  complement Bb and CH50 values: within the reference range
R1 protein
  R1 protein expression (synthesis): specifically decreases R1 protein expression; also recorded: dramatically decreased; also recorded: specifically inhibit the expression of R1 protein

Source: US20070274947A1, “Antisense Oligonucleotides Directed to Ribonucleotide Reductase R1 and Uses Thereof in the Treatment of Cancer” (priority 2003, published 2007)
